# Source: patent US20220127297A1, “Novel Antibacterial 3"-Derivatives Of 4,6-Disubstituted 2,5-Dideoxystreptamine Aminoglycoside Antibiotics” (AGILeBiotics B.V., priority 2018, published 2022)
# Where two headings read alike, the source gives them in different places.
# Legend:
# [1] = test system: clinical isolates of Vancomycin-resistant Enterococcus faecium (VRE); test: MIC determination at Fidelta, clinical isolates; format: cell-based
# Excerpt: (§1) 3.4.2 MIC Determination at Fidelta (Croatia)
# (§2) Tested reference compounds. Amikacin sulfate (Cat. No. 01693, Chem-Impex), Gentamicin sulfate (Cat. No. G4918, Sigma Aldrich), Ceftazidime Pentahydrate (Cat. No. 1098130, USP), Meropenem (Cat. No. 1392454, USP), Tobramycin (Cat. No. 1667508, USP).
# (§3) Microbial strains. Klebsiella pneumoniae KP-1919 (abdomen), Klebsiella pneumoniae KP-1935 (urine), Klebsiella pneumoniae KP-1936 (abscess), Klebsiella pneumoniae KP-1937 (blood), Klebsiella pneumoniae KP-1942 (urine), Klebsiella pneumoniae KP-1944 (blood), Klebsiella pneumoniae KP-2027 (tracheal aspirate), Klebsiella pneumoniae KP-2029 (urine), Klebsiella pneumoniae KP-2030 (trachea), Klebsiella pneumoniae KP-2031 (skin), Klebsiella pneumoniae KP-2032 (urine), Klebsiella pneumoniae KP-2033 (urine), Klebsiella pneumoniae KP-2034 (urine), Klebsiella pneumoniae KP-2035 (urine), Klebsiella pneumoniae KP-2036 (urine), Klebsiella pneumoniae KP-2037 (urine), Klebsiella pneumoniae ATCC 43816, Pseudomonas aeruginosa PA-1948 (wound), Pseudomonas aeruginosa PA-1949 (urine), Pseudomonas aeruginosa PA-1950 (sputum), Pseudomonas aeruginosa PA-1952 (wound), Pseudomonas aeruginosa PA-1953 (urine), Pseudomonas aeruginosa PA-1954 (sputum), Pseudomonas aeruginosa PA-1967 (blood), Pseudomonas aeruginosa ATCC27853, Acinetobacter baumannii AB-1931 (urine), Acinetobacter baumannii AB-1932 (urine), Acinetobacter baumannii AB-2017 (bronchial aspirate), Acinetobacter baumannii AB-2018 (skin), Acinetobacter baumannii AB-2019 (bronchial aspirate), Acinetobacter baumannii AB-1964 (blood), Acinetobacter baumannii AB-2025 (skin), Acinetobacter baumannii AB-2026 (skin), Acinetobacter baumannii ATCC17978, methicillin-resistant Staphylococcus aureus MRSA-1995 (liquor), methicillin-resistant Staphylococcus aureus MRSA-1998 (wound), methicillin-resistant Staphylococcus aureus MRSA-1999 (skin), methicillin-resistant Staphylococcus aureus MRSA-2003 (wound), vancomycin-resistant Enterococcus faecium VRE-2005 (urine), vancomycin-resistant Enterococcus faecium VRE-2006 (urine), vancomycin-resistant Enterococcus faecium VRE-2007 (urine), vancomycin-resistant Enterococcus faecium VRE-2008 (urine), vancomycin-resistant Enterococcus faecium VRE-2009 (urine), vancomycin-resistant Enterococcus faecium VRE-2010 (urine), vancomycin-resistant Enterococcus faecium VRE-2011 (rectum), vancomycin-resistant Enterococcus faecium VRE-2012 (rectum), vancomycin-resistant Enterococcus faecium VRE-2013 (rectum).
# (§4) Culture media and equipment. BBL™ Mueller Hinton Broth (REF 275730, Lot. 7009699, Becton Dickinson); Mueller Hinton Agar 2 (Ref. No. 97580-500G-F, Lot. No. BCBV4646, Sigma); Cellstar, 96-well plates, U-bottom (Cat. No. 650180, Lot. No. E14123EB, Greiner Bio-one); 96-well deep well plate, 1 mL (Cat. No. 278606, Nunc); Incubator (Binder); Laminar flow (Thermo Scientific); BioPhotometer (Eppendorf); DEN-1B (McFarland Densitometer, Biosan); McFarland standards (polymer microparticle suspension, Biosan).
# (§5) Compound preparation. For testing, 5 mg/mL DMSO solutions of the test compounds and reference antibiotics were used. Out of these DMSO solutions, 43.5 μL was transferred to 1656.5 μL of MH media in a deep well plate. Out of these working solutions 100 μL was transferred to wells in the third column of 96-well plates. Plates are previously filled with 50 μL of MH media in all wells except for the wells in the third column. After compound and antibiotic addition, 50 μL was transferred from the third to the fourth column, then from the fourth to the fifth and so on. In this manner, the compounds and antibiotics were plated in 96-well plate in serial two-fold dilutions giving a final concentration range of 64-0.125 μg/mL.
# (§6) Inoculum preparation. Designations used for clinical isolates were from Fidelta strain collection bank. Microorganisms used were all revived from skim milk storage at −70° C. by plating them on MH agar plates.
# [2] = test system: clinical isolates of methicillin-resistant Staphylococcus aureus (MRSA); test: MIC determination at Fidelta, clinical isolates; format: cell-based
# Excerpt: as §1, §2, §3, §4, §5, §6
# [3] = test system: clinical isolates of multidrug-resistant Klebsiella pneumoniae (and ATCC43816); test: MIC determination at Fidelta, clinical isolates; format: cell-based; settings: Klebsiella pneumoniae
# Excerpt: as §1, §2, §3, §4, §5, §6
# [4] = test system: Klebsiella pneumoniae ATCC 43816; test: Murine neutropenic thigh model of infection; format: in vivo, male CD-1 mice
# Protocol: 4.1 Murine Neutropenic Thigh Model of Infection (Kiebsiella Pneumoniae ATCC 43816)
# A comparator antibiotic (meropenem; Cat. No. 1392454, USP) was used during both studies.
# During the first study ABX5006 and ABX5020 were tested at a dose of 64 mg/kg (group 5 for ABX5006, group 8 for ABX5020), 16 mg/kg (group 4 for ABX5006, group 7 for ABX5020) and of 4 mg/kg (group 3 for ABX5006, group 6 for ABX5020).
# During a second study ABX5026 and ABX5039 were tested at a dose of 4 mg/kg (group 5 for ABX5026, group 8 for ABX5039), 1 mg/kg (group 4 for ABX5026, group 7 for ABX5039) and of 0.25 mg/kg (group 3 for ABX5026, group 6 for ABX5039).
# Animals were dosed subcutaneously (10 mL/kg) twice with 8 h interval. […] A CFU count below limit of detection (LOD=1.0×10^2 CFU/mL) was substituted with the value 0 in order to perform statistical analysis.
# Inoculum preparation for intramuscular infection. The strain was streaked out onto MH agar.
# [5] = ATCC43816, KP-1919, Abdomen/VIM, ESBL
# [6] = ATCC43816, KP-1935, Urine/ESBL, NDM
# [7] = ATCC43816, KP-1936, Abscess/NDM
# [8] = ATCC43816, KP-1937, Blood/VIM, ESBL
# [9] = ATCC43816, KP-1942, Urine (catheter)/VIM
# [10] = ATCC43816, KP-2027, Tracheal aspirate/ESBL, OXA-48, ColR
# [11] = ATCC43816, KP-2029, Urine/ESBL, OXA-48
# [12] = ATCC43816, KP-2030, Trachea/ESBL, OXA-48
# [13] = ATCC43816, KP-2031, Skin/ESBL, OXA-48
# [14] = ATCC43816, KP-2032, Urine/ESBL, OXA-48
# [15] = ATCC43816, KP-2033, Urine/OXA-A8
# [16] = ATCC43816, KP-2034, Urine/ESBL, OXA-48
# [17] = ATCC43816, KP-2035, Urine/ESBL, OXA-48
# [18] = ATCC43816, KP-2037, Urine/ESBL, OXA-48
SMILES,"MIC90 ([1]; VRE-2005, Urine)","MIC90 ([1]; VRE-2006, Urine)","MIC90 ([1]; VRE-2007, Urine)","MIC90 ([1]; VRE-2008, Urine)","MIC90 ([1]; VRE-2009, Urine)","MIC90 ([1]; VRE-2010, Urine)","MIC90 ([1]; VRE-2011, Rectum)","MIC90 ([1]; VRE-2012, Rectum)","MIC90 ([1]; VRE-2013, Rectum)","MIC90 ([2]; MRSA-1995, Liquor)","MIC90 ([2]; MRSA-1998, Wound)","MIC90 ([2]; MRSA-1999, Skin)","MIC90 ([2]; MRSA-2003, Wound)","MIC90 [3, 5]","MIC90 [3, 6]","MIC90 [3, 7]","MIC90 [3, 8]","MIC90 [3, 9]","MIC90 ([3]; ATCC43816, KP-1944, Blood/NDM)","MIC90 [3, 10]",other results
"CC(C)(O/N=C(\C(=O)N[C@@H]1C(=O)N2C(C(=O)[O-])=C(C[n+]3ccccc3)CS[C@H]12)c1csc(N)n1)C(=O)O [Ceftazidime, reference compound]",> 64 µg/mL,> 64 µg/mL,> 64 µg/mL,> 64 µg/mL,> 64 µg/mL,> 64 µg/mL,> 64 µg/mL,> 64 µg/mL,> 64 µg/mL,> 64 µg/mL,> 64 µg/mL,> 64 µg/mL,> 64 µg/mL,64 µg/mL,> 64 µg/mL,> 64 µg/mL,> 64 µg/mL,> 64 µg/mL,> 64 µg/mL,> 64 µg/mL,"MIC90 ([3]; ATCC43816, K. pneumoniae ATCC43816 strain, read-out: MIC 90): < 0.125 µg/mL; MIC90 [3, 11]: > 64 µg/mL; MIC90 [3, 12]: > 64 µg/mL; MIC90 [3, 13]: > 64 µg/mL; MIC90 [3, 14]: > 64 µg/mL; MIC90 [3, 15]: > 64 µg/mL; MIC90 [3, 16]: > 64 µg/mL; MIC90 [3, 17]: > 64 µg/mL; MIC90 ([3]; ATCC43816, KP-2036, Urine/ESBL): > 64 µg/mL; MIC90 [3, 18]: > 64 µg/mL"
"C[C@@H](O)[C@H]1C(=O)N2C(C(=O)O)=C(S[C@@H]3CN[C@H](C(=O)N(C)C)C3)[C@H](C)[C@H]12 [Meropenem, meropenem, reference compound]",> 64 µg/mL,> 64 µg/mL,> 64 µg/mL,> 64 µg/mL,> 64 µg/mL,> 64 µg/mL,> 64 µg/mL,> 64 µg/mL,> 64 µg/mL,64 µg/mL,8 µg/mL,64 µg/mL,8 µg/mL,4 µg/mL,32 µg/mL,> 64 µg/mL,32 µg/mL,64 µg/mL,> 64 µg/mL,4 µg/mL,"Change from vehicle group ([4]; Log CFU/g thigh, dose 100 mg/kg SC BID): −4.56; Avg. Log CFU/g thigh ([4]; dose 100 mg/kg SC BID, 24 h post infection): 4.95 Log CFU/g; Change from vehicle group ([4]; dose 100 mg/kg, SC, BID, Avg. Log CFU/g thigh vs vehicle): 8.17; Avg. Log CFU/g ([4]; dose 100 mg/kg, SC, BID, thigh, 24 hours post infection): 1.61 Log CFU/g; survival rate ([4]; first study, vehicle group 50% mortality): 100%; MIC90 ([3]; ATCC43816): < 0.125 µg/mL; MIC90 [3, 11]: 4 µg/mL; MIC90 [3, 12]: 4 µg/mL; MIC90 [3, 13]: 2 µg/mL; MIC90 [3, 14]: 2 µg/mL; MIC90 [3, 15]: 16 µg/mL; MIC90 [3, 16]: 16 µg/mL; MIC90 [3, 17]: 2 µg/mL; MIC90 ([3]; ATCC43816, KP-2036, Urine/ESBL): 16 µg/mL; MIC90 [3, 18]: 2 µg/mL"
